Source: US20120202825A1, “Soluble Salts of Thieno [2,3-d] Pyrimidine Derivatives” (priority 2011, published 2012)

What was measured:
[1] = Storage at 40° C./75% RH (XRPD, HPLC purity, colour); assay type: physicochemical; conditions: 4 weeks at 40° C./75% RH under ambient light conditions
[2] = test system: stress-induced accelerated colonic transit; assay: Water avoidance stress (WAS) fecal pellet output, model of increased colonic transit; assay type: in vivo, rat
Procedure: Preliminary testing in the water avoidance stress model confirmed that there exists an association between stress and altered colonic motility. Fecal pellet output was measured by counting the total number of fecal pellets produced during 1 hour of WAS. Using the WAS model, the effect of MCI-225 was compared to the effects of ondansetron (5-HT3 antagonist) or nisoxetine (noradrenaline reuptake inhibitor—NARI) to affect fecal pellet output.
Adult male F-344 rats, supplied by Charles River Laboratories and weighing 270-350 g, were used to complete this study. The rats were housed 2 per cage under standard conditions. Following one to two weeks of acclimatization to the animal facility, the rats were brought to the laboratory and handled daily for another week to acclimatize them to laboratory conditions and to the research associate who performed the studies. All procedures used in this study were approved in accordance with facility standards.
All rats underwent sham stress (1-hour in stress chamber without water) for 2-4 consecutive days before undergoing WAS (sham was performed until rats produced 0-1 pellet per hour for 2 consecutive days). At the end of the 1-hour stress period, the fecal pellets were counted and recorded.
WAS causes an acceleration of colonic transit, which can be quantified by counting the number of fecal pellets, produced during the stress procedure. Rats were placed for 1-hour into a stress chamber onto a raised platform 7.5 cm×7.5 cm×9 cm (L×W×H) in the center of a stress chamber filled with room temperature water 8 cm in depth. The stress chamber was constructed from a rectangular plastic tub (40.2×60.2×31.2 cm).
Control drugs for this study were ondansetron and nisoxetine. Ondansetron was supplied from APIN Chemicals LTD. Nisoxetine was supplied by Tocris. MCI-225 was provided by Mitsubishi Pharma Corp. All drugs were dissolved in a vehicle of 100% propylene glycol (1,2-propanediol) by sonicating for a period of 10 minutes. […]
Statistical significance was assessed using one-way ANOVA followed by Tukey post-test. […]

small intestinal transit = assay: Small Intestinal Transit Rodent Model (charcoal meal); assay type: in vivo, rat
Procedure: Following an overnight fast, rats were brought to the laboratory in their home cages and received an i.p. injection of one of the following: […] Control rats received no treatment. The treated rats were placed back in the home cages and after 30 min, were fed a 2 mL charcoal meal via an oral gavage. Small intestinal transit was measured following 15 min test-period. Each rat was placed briefly in a glass chamber with IsoFlo for anesthesia and sacrificed. The stomach and the small intestine were removed and the total length of the small intestine was measured. Transit was then measured as the distance that the charcoal meal had traveled along the small intestine and expressed as % of the total length. Animals were randomly assigned to experimental groups and experiments were performed as illustrated in Table 3. Ondansetron was supplied from APIN Chemicals LTD. […] MCI-225 was provided by Mitsubishi Pharma Corp. All drugs were dissolved in a vehicle of 100% propylene glycol (1,2-Propanediol) by sonicating for 10 min. Propylene glycol was obtained from Sigma Chemical Co. Ondansetron, a 5-HT3-receptor antagonist was dosed i.p. at 1, 5, and 10 mg/kg. […] All doses were delivered in a final volume of 200 μL. Animals in the vehicle control group received 200 μL of 100% Propylene glycol and animals in the normal control group were untreated. Adult male F-344 rats (230-330 g) were used in the study. The rats were housed 2 per cage under standard conditions. The animals were fed a standard rodent diet and food and water were provided “ad libitum”. Rats were allowed to acclimatize to the animal facility for one week prior to the transit experiments. […] The distance traveled by the charcoal meal was quantified as a percent of the small intestinal length, using the following equation: Transit(%)=cm traveled by meal/cm total small intestinal length×100 […] […] Differences between individual dose groups within treatments and comparisons between drug-treated and vehicle-treated groups were determined using an unpaired t test considering that when % is used as a relative unit, t-statistic is relevant. […]

cisplatin-induced emesis = assay: Cisplatin-induced emesis in the ferret; assay type: in vivo, ferret (Mustela putario furo); conditions: 5 mg/kg and 10 mg/kg i.p.
Procedure: Adult male ferrets (Mustela putario furo) weighing 1200-1880 g were purchased from Triple F Farms (Sayre, Pa.) and housed in individual cages at standardized conditions (12:12 h light/dark cycle and 21-23° C.). Prior to the experiments, the ferrets were allowed a 7-10 day acclimatization period to the animal facility. The ferrets were fed a carnivore diet with free access to food and water throughout the course of the study. The use of the ferret model of emesis and the drug treatment were preapproved in accordance with facility standards. A cisplatin solution was prepared by adding preheated (70° C.) saline to cisplatin powder (Sigma-Aldrich Co.) and stirring or sonicating at 40° C. until dissolved. Following administration of the cisplatin and either MCI-225, ondansetron or vehicle alone, the occurrence of retching and vomiting was monitored for a period of 6 hours. Retching was defined as the number of forceful rhythmic contractions of the abdomen occurring with the animal in characteristic posture, but not resulting in the expulsion of upper gastrointestinal tract contents (Watson et al., British Journal of Pharmacology, 115(1): 84-94 (1994)). […] The latency of the retching or vomiting response and the number of episodes were recorded for each animal and summarized for each experimental group (Wright et al., Infect. Immun., 68(4): 2386-9 (2000)). […]

[3] = test system: acetic acid-induced colonic hypersensitivity; assay: Visceromotor response to colorectal distension, acetic acid-induced colonic hypersensitivity; assay type: in vivo, rat
Procedure: A 10 min recovery was allowed between distensions.
Adult male rats were used in the study.
Ten minute recovery periods were allowed following each distension.
Statistical significance of the treatment groups was assessed using one-way ANOVA followed by Tukey post-test. […] (*) p<0.05, (**) p<0.01, (***) p<0.001

Molecule: 4-(2-fluorophenyl)-6-methyl-2-(piperazin-1-yl)thieno[2,3-d]pyrimidine hydrochloride [MCI-225]
- colour of material surface after storage [1]: gone yellow

Molecule: CNCCC(Oc1ccccc1OC)c1ccccc1 (stereo not drawn) [Nisoxetine]
- WAS-induced fecal pellet output during 1 hour ([2]; rats, 3, 10 and 30 mg/kg i.p.): reduced by all doses
- fecal pellets produced during WAS compared to the vehicle treated group ([2]; rats, 10 and 30 mg/kg i.p.): significantly fewer
- small intestinal transit (small intestinal transit; rats, 30 mg/kg i.p.): almost completely inhibited
- small intestinal transit (small intestinal transit; rats, 3 or 10 mg/kg i.p.): tendency to decrease

Molecule: Cc1nccn1CC1CCc2c(c3ccccc3n2C)C1=O (stereo not drawn) [Ondansetron]
- latency of the first emetic response following cisplatin treatment (cisplatin-induced emesis): increase in the latency
- number of emetic events induced by cisplatin (cisplatin-induced emesis): dose-dependently reduced
- stress-induced fecal pellet output during 1 hour of WAS ([2]; rats, 1, 5 and 10 mg/kg i.p.): dose-dependent inhibition
- small intestinal transit (small intestinal transit; rats, 1, 5 or 10 mg/kg i.p.): significant reduction
- responses to moderate (30 mmHg) and high (60 mmHg) intraluminal pressure ([3]; rats, 10 mg/kg i.p. (highest dose)): did not abolish the responses
- behavioral activity of the rats ([3]; rats, 1, 5 or 10 mg/kg i.p.): No significant changes
- number of abdominal contractions (visceromotor response to colorectal distension) ([3]; rats, 1, 5 or 10 mg/kg i.p., all distension pressures, vs vehicle): dose-dependent decrease
